According to patent publication US6753442B1, “Amorphous nitric esters and their pharmaceutical compositions” (Nicox S.A., priority 1999, dated 2004):

Legend:
[1] = Crystallinity loss (amorphization degree) by DSC; type: physicochemical; conditions: result in words
Procedure: The amorphization degree can be measured by well known methods such as for example DSC, RX, IR, etc. […] The amorphization degree is determined by DSC as variation reduction) of the subtended area of the endothermic melting peak of the active principle. When the amorphization is complete, the melting peak characteristic of the active principle of formula (I) substantially disappears. This means that there is a variation of the enthalpy associated to the melting peak. The specific melting enthalpy ΔH (Joule/g) of the product as such and of the product treated with processes able to decrease the crystallinity (formulation) thereof, is determined by DSC analysis. The percent crystallinity loss is evaluated by the following equation: [formula] The scanning parameters adopted for the DSC analysis are the following: Scanning range: from 30° C. min. to 330° C. max Scanning rate: 10 K/min

[2] = Dissolution rate test in deionized water (USP XXIII apparatus, UV 235 nm); type: physicochemical; conditions: for % of active principle passed in solution after 10 minutes: as stated in the text of the Examples; for % by weight of the active principle passed in solution: 30 mg active principle in 1000 ml deionized water, 37°C, 100 rpm
Procedure: The dissolution rate test is carried out in a dissolving equipment according to United States Pharmacopeia 23 by using a volume of deionized water of 1000 ml. The blade stirrer speed is of 100 rpm and the temperature is 37±0.5° C.
In a little glass vessel an exact amount of each sample is weighed so that it contains an amount of the active principle equal to 30 mg, which is directly introduced in the vessel containing the deionized water. At predetermined times, respectively of 5, 10, 15, 30, 45, 50, 60, 90 and 120 minutes from the beginning of the test, the amount of the nitroderivative compound passed in solution is determined, by measuring the concentration w/v (weigh/volume) thereof by UV spectrophotometry at the wave length of 235 nm, using a calibration line. The data are expressed as percentage of nitroderivative compound passed in solution in connection with the time. The amount of the compound of formula (I) passed in solution at the time of 10 minutes is at least about 10 times higher with respect to that of the nitroderivative compound not in amorphous form.
The dissolution rate of 3-(nitroxymethyl)phenyl ester of the acetylsalicylic acid as such and in the preparations containing it according to the examples described hereinafter, has been carried out in a dissolving equipment according to USP (United States Pharmacopeia) XXIII.
The test is carried out by using a volume of deionized water of 1000 ml. The angle rate of the blade stirrer is of 100 rpm and the temperature of 37±0.5° C.
In a little glass vessel an exact amount of each preparation to be tested is weighed so that it contains an amount of the active principle equal to 30 mg, which is directly introduced in the vessel. At predetermined times, respectively of 5, 10, 15, 30, 45, 50, 60, 90 and 120 minutes from the beginning of the test the amount of the compound passed in solution is determined, by measuring the concentration w/v thereof by UV spectrophotometry at the wave length of 235 nm, using a calibration line. The data are expressed as percentage of active principle passed in solution in connection with the time.

| Compound | crystalline state of the active principle by DSC analysis [1] | % of active principle passed in solution after 10 minutes [2] [%] | % by weight of the active principle passed in solution ([2]; time 5 minutes, listed as Ex. 1) [% by weight] | % by weight of the active principle passed in solution ([2]; time 10 minutes, listed as Ex. 1) [% by weight] | % by weight of the active principle passed in solution ([2]; time 15 minutes, listed as Ex. 1) [% by weight] | % by weight of the active principle passed in solution ([2]; time 30 minutes, listed as Ex. 1) [% by weight] | % by weight of the active principle passed in solution ([2]; time 45 minutes, listed as Ex. 1) [% by weight] | % by weight of the active principle passed in solution ([2]; time 60 minutes, listed as Ex. 1) [% by weight] | % by weight of the active principle passed in solution ([2]; time 90 minutes, listed as Ex. 1) [% by weight] | % by weight of the active principle passed in solution ([2]; time 120 minutes, listed as Ex. 1) [% by weight] | % by weight of the active principle passed in solution ([2]; time 0 minutes) [% by weight] | % by weight of the active principle passed in solution ([2]; time 5 minutes) [% by weight] | % by weight of the active principle passed in solution ([2]; time 10 minutes) [% by weight] | % by weight of the active principle passed in solution ([2]; time 15 minutes) [% by weight] | % by weight of the active principle passed in solution ([2]; time 30 minutes) [% by weight] | % by weight of the active principle passed in solution ([2]; time 45 minutes) [% by weight] | % by weight of the active principle passed in solution ([2]; time 60 minutes) [% by weight] | % by weight of the active principle passed in solution ([2]; time 90 minutes) [% by weight] | % by weight of the active principle passed in solution ([2]; time 120 minutes) [% by weight] |
| --- | --- | --- | --- | --- | --- | --- | --- | --- | --- | --- | --- | --- | --- | --- | --- | --- | --- | --- | --- |
| CC(=O)Oc1ccccc1C(=O)Oc1cccc(CO[N+](=O)[O-])c1 [Example 1, 3-(nitroxymethyl)phenyl ester of the acetylsalicylic acid] | completely crystalline | 0.3 | 0.1 | 0.3 | 0.4 | 0.8 | 1.2 | 1.6 | 2.4 | 3.1 |  |  |  |  |  |  |  |  |  |
| CC(=O)Oc1ccccc1C(=O)Oc1cccc(CO[N+](=O)[O-])c1 [Example 7, 3-(nitroxymethyl)phenyl ester of the acetylsalicylic acid] | completely crystalline form | 0.5 |  |  |  |  |  |  |  |  | 0.0 | 0.3 | 0.5 | 0.8 | 1.5 | 2.2 | 2.7 | 4.0 | 5.2 |
